Paper PMC6528170 (Nature, 2009)
Like-named read-outs stand apart in the source and are kept apart here.

Columns and labels:
Get3 (S. cerevisiae) [1] = molecular target: Get3 (S. cerevisiae) (Saccharomyces cerevisiae, UniProt Q12154, D57N); assay: NADH-coupled microplate ATPase assay; assay type: biochemical; details: Tris pH 7.5, 5 mM MgCl2, 20 mM NaCl, 30 °C, 2 μM Get3, 0.02% n-dodecyl-β-D-maltopyranoside
Get3 (S. cerevisiae) [2] = molecular target: T1, Get3 (S. cerevisiae) (Saccharomyces cerevisiae, UniProt Q12154); assay: NADH-coupled microplate ATPase assay; assay type: biochemical; details: Tris pH 7.5, 5 mM MgCl2, 20 mM NaCl, 30 °C, 2 μM Get3, 0.02% n-dodecyl-β-D-maltopyranoside
T1 sequence (Q12154 1-354): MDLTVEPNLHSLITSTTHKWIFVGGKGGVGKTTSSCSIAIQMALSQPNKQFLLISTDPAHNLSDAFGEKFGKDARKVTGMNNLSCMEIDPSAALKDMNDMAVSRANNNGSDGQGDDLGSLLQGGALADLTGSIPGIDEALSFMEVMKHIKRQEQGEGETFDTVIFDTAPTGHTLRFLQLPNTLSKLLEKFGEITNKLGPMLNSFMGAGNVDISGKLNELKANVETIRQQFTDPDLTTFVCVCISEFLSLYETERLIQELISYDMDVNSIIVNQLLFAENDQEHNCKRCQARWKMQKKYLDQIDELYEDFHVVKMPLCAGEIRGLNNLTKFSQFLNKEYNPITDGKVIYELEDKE

crystal structure [3] = molecular target: the molecule itself; assay: crystal structure
crystal structure [4] = molecular target: the molecule itself; assay: crystal structure; remark: listed apart in the source

Chain of Get3 (S. cerevisiae) (Saccharomyces cerevisiae, UniProt Q12154, D57N) (Q12154 whole entry D57N): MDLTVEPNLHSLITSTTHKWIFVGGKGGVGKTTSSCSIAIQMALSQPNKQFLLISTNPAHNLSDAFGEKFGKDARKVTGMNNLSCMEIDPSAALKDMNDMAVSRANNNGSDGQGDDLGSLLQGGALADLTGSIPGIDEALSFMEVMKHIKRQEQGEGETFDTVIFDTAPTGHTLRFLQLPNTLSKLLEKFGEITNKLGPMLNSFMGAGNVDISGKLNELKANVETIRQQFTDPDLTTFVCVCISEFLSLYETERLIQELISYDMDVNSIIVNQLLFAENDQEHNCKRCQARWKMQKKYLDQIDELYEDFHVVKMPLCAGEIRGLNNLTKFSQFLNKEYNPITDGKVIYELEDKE

Nc1ncnc2c1ncn2[C@@H]1O[C@H](COP(=O)(O)OP(=O)(O)OP(=O)(O)O)[C@@H](O)[C@H]1O [ATP]
NADH-coupled microplate ATPase assay (Get3 (S. cerevisiae) [1]): an Asp57Asn mutant is defective for ATP hydrolysis
apparent Km,ATP (Get3 (S. cerevisiae) [2]): used to calculate Vmax and apparent Km,ATP values

B1: Schizosaccharomyces pombe Get3 (natural protein, S. pombe, UniProt Q9P7F8 1-329, looked up)
chain: MSFDPLPGTLENLLEQTSLKWIFVGGKGGVGKTTTSCSLAIQMSKVRSSVLLISTDPAHNLSDAFGTKFGKDARKVPGFDNLSAMEIDPNLSIQEMTEQADQQNPNNPLSGMMQDLAFTIPGIDEALAFAEILKQIKSMEFDCVIFDTAPTGHTLRFLNFPTVLEKALGKLGGLSSRFGPMINQMGSIMGVNANEQDLFGKMESMRANISEVNKQFKNPDLTTFVCVCISEFLSLYETERMIQELTSYEIDTHNIVVNQLLLDPNTTCPQCMARRKMQQKYLAQIEELYEDFHVVKVPQVPAEVRGTEALKSFSEMLVKPYVYPTSGKE
stoichiometry N (crystal structure [3]): 2

B2: Saccharomyces cerevisiae Get3 (wild type) (natural protein, S. cerevisiae, UniProt Q12154 1-354, looked up)
chain: T1 sequence (Q12154 1-354)
stoichiometry N (crystal structure [4]): 2
